Like-named read-outs stand apart in the source and are kept apart here.
How the values were obtained:
IL-8 = assay: Plasma IL-8 level; format: in vivo, human; conditions: after 14 days of multiple dosing
Procedure: The relative changes between cycle 1, day 14 and baseline were calculated for VEGF, sVEGFR-2, bFGF, IL-8, tumour blood flow and tumour vessel permeability as measured by DCE-MRI and diastolic blood pressure (Figure 2C). […] The changes in VEGF and sVEGFR-2 plasma levels, the decrease in tumour blood flow and permeability and the increase in diastolic blood pressure were not predictive for the clinical outcome; there were no statistically significant differences in the change of biomarkers for patients who reached a progression-free survival of >3 months compared with those who stopped treatment during the first 3 months due to progressive disease.

PDGFR-β = tested on: PDGFR-β; design: method as in printed; conditions: biochemical assay; background statement, ref not given; cited from earlier work
sVEGFR-2 = assay: Plasma sVEGFR-2 concentration (ELISA); format: in vivo, human; conditions: over the course of the study
Procedure: (§1) The effects of telatinib treatment on the plasma concentrations of sVEGFR-2, VEGF and bFGF were determined from blood samples taken at baseline, on day 14 of cycles 1, 2, 4, 6, etc. and at the final visit. Samples were analysed using the relevant quantitative enzyme-linked immunosorbent assay (ELISA) (R&D Systems Europe, Oxford, UK) according to the manufacturer's instructions. DCE-MRI was performed at baseline, on day 2 (only cycle 1), and on day 14 of cycles 1–3 to assess tumour blood flow/tumour vessel permeability in a subgroup of patients ([Morgan et al, 2003]).
(§2) To assess the biological activity of telatinib, plasma concentration analyses for the angiogenic markers VEGF, sVEGFR-2, bFGF, PDGF and […] were performed at baseline and during the course of the study. Furthermore, DCE-MRI measurements were done at baseline, on days 2 and 14 of cycle 1 and on day 14 of cycles 2 and 3. Evaluable DCE-MRI results were available for a subgroup of patients treated at dose levels of 300 mg BID or higher.

major human CYP isoforms = tested on: major human CYP isoforms; design: method as in printed; conditions: at therapeutically relevant concentrations; background statement, ref not given; cited from earlier work
[1] = tested on: MDA-MB-231 breast carcinoma; design: method as in printed; conditions: MDA-MB-231 breast carcinoma model; background statement, ref not given; cited from earlier work
bFGF = assay: Plasma bFGF concentration (ELISA); format: in vivo, human; conditions: after 14 days of multiple dosing
Procedure: as §1, §2

[2] = tested on: p-glycoprotein transporter; design: method as in printed; conditions: in vitro studies; background statement, ref not given; cited from earlier work
[3] = Plasma pharmacokinetics of telatinib and metabolite BAY 60-8246 (LC-MS-MS, non-compartmental); format: in vivo, human; conditions: for half-life / Tmax / Cmax / AUC(0-t) / AUC: human; for AUC(0-t): read-out: AUC0–12; for AUC: read-out: AUC0–tn
Procedure: Patients with at least one valid pharmacokinetic profile were valid for the pharmacokinetic analysis. Plasma samples were collected at predose and 0.5, 1, 2, 3, 4, 6, 8, and 12 h postdose on day 1 and day 14 of cycle 1 and were analysed for BAY 57-9352 and its demethylated metabolite M-2, BAY 60-8246, using a validated LC-MS-MS analytical method.
Plasma pharmacokinetic parameters, area under the curve from time 0–12 h after dosing (AUC0−12), area under the curve from time 0 to last data point (AUC0−tn), maximum plasma concentration (Cmax), and time to maximum plasma concentration (tmax) of telatinib and its metabolite (BAY 60-8246) as well as half-life of telatinib were calculated by non-compartmental methods using WinNonlin version 4.1.a (Pharsight Corporation). The linear-logarithmic trapezoidal rule was used for calculating AUC. Half-life was calculated by linear least squares regression after logarithmic transformation of the terminal concentrations. Pharmacokinetic parameters were analysed using descriptive statistics.

[4] = tested on: refractory advanced solid tumours; assay: Tumour response according to RECIST; format: in vivo, human; conditions: number of patients
Procedure: History, physical examinations, haematological and biochemical laboratory evaluations were performed at screening, on days 1, 7 and 14 of cycle 1 and on day 1 of subsequent cycles. Baseline objective tumour measurements were performed within 4 weeks prior to study treatment. Lesions at all disease sites were categorised as either measurable or nonmeasurable. Indicator lesions were selected and monitored throughout the study by the same assessor and using the same technique. Tumour response was evaluated according to the RECIST ([Therasse et al, 2000]).

[5] = telatinib in plasma, day 14 cycle 1, 75 mg BID oral, 25 mg mesylate tablet, n=4, geometric mean (%CV)
[6] = telatinib in plasma, day 14 cycle 1, 150 mg BID oral, 25 mg mesylate tablet, n=6, geometric mean (%CV)
[7] = telatinib in plasma, day 14 cycle 1, 300 mg BID oral, 25 mg mesylate tablet, n=6, geometric mean (%CV)
[8] = telatinib in plasma, day 14 cycle 1, 600 mg BID oral, 150 mg mesylate tablet, n=11, geometric mean (%CV)
[9] = telatinib in plasma, day 14 cycle 1, 900 mg BID oral, 150 mg mesylate tablet, n=12, geometric mean (%CV)
[10] = telatinib in plasma, day 14 cycle 1, 1200 mg BID oral, 150 mg mesylate tablet, n=6, geometric mean (%CV)
[11] = telatinib in plasma, day 14 cycle 1, 1500 mg BID oral, 150 mg mesylate tablet, n=12, geometric mean (%CV)
[12] = primary tumour site Colorectal, N=25
[13] = primary tumour site Other, N=17
[14] = primary tumour site Pancreatic, N=4

Compound: CNC(=O)c1cc(COc2nnc(Nc3ccc(Cl)cc3)c3ccoc23)ccn1 [telatinib]
- IL-8 plasma levels (IL-8): no relevant changes
- PDGFR-β tyrosine kinase activity (PDGFR-β): potent inhibitor
- sVEGFR-2 levels (sVEGFR-2): dose-dependent decrease
- inhibitory and inductive potential on major human CYP isoforms (major human CYP isoforms): neither an inhibitory nor an inductive potential
- tumour growth in vivo [1]: potent, dose-dependent reduction in tumour growth
- bFGF plasma levels (bFGF): no relevant changes
- drug–drug interactions due to modulation of p-glycoprotein transporter activity [2]: unlikely
- Relative bioavailability ([3]; 150 mg tablet formulation compared with 25 mg tablet formulation): less when compared with the 25 mg tablet formulation
- Dose proportionality of geometric mean Cmax and AUC0−12 ([3]; BID dosing, plateaued in the 900–1500 mg BID dose range): less than dose-proportional
- Increase in geometric mean Cmax between dose levels ([3]; between the 300 and 600 mg BID dose level): two-fold
- half-life ([3]; plasma, oral, telatinib, across dose levels, discussion statement, read-out: half-life): 6.6 to 10.9 h
- Tmax ([3]; plasma, telatinib, oral, BID dosing, read-out: median tmax): ≤ 3 h
- Cmax [3, 5]: 212 ng/mL
- AUC(0-t) [3, 5]: 1390 ng·h/mL
- AUC [3, 5]: 1380 ng·h/mL
- half-life ([3]; telatinib in plasma, day 14 cycle 1, 75 mg BID oral, 25 mg mesylate tablet, n=4, geometric mean (%CV), read-out: t1/2 (converted)): 7.4 h
- Tmax ([3]; telatinib in plasma, day 14 cycle 1, 75 mg BID oral, 25 mg mesylate tablet, n=4, median (range), read-out: tmax): 2.1 h
- Cmax [3, 6]: 219 ng/mL
- AUC(0-t) [3, 6]: 1730 ng·h/mL
- AUC [3, 6]: 1750 ng·h/mL
- half-life ([3]; telatinib in plasma, day 14 cycle 1, 150 mg BID oral, 25 mg mesylate tablet, n=6, geometric mean (%CV), read-out: t1/2 (converted)): 10.9 h
- Tmax ([3]; telatinib in plasma, day 14 cycle 1, 150 mg BID oral, 25 mg mesylate tablet, n=6, median (range), read-out: tmax): 3 h
- AUC(0-t) ([3]; telatinib in plasma, day 14 cycle 1, 300 mg BID oral, 25 mg mesylate tablet, n=6 (sample size reduced by 2), geometric mean (%CV)): 2860 ng·h/mL
- half-life ([3]; telatinib in plasma, day 14 cycle 1, 300 mg BID oral, 25 mg mesylate tablet, n=6 (sample size reduced by 2), geometric mean (%CV), read-out: t1/2 (converted)): 8 h
- Cmax [3, 7]: 389 ng/mL
- AUC [3, 7]: 1920 ng·h/mL
- Tmax ([3]; telatinib in plasma, day 14 cycle 1, 300 mg BID oral, 25 mg mesylate tablet, n=6, median (range), read-out: tmax): 1.5 h
- Cmax [3, 8]: 810 ng/mL
- AUC(0-t) [3, 8]: 5430 ng·h/mL
- AUC [3, 8]: 5430 ng·h/mL
- half-life ([3]; telatinib in plasma, day 14 cycle 1, 600 mg BID oral, 150 mg mesylate tablet, n=11, geometric mean (%CV), read-out: t1/2 (converted)): 8.7 h
- Tmax ([3]; telatinib in plasma, day 14 cycle 1, 600 mg BID oral, 150 mg mesylate tablet, n=11, median (range), read-out: tmax): 2.1 h
- half-life ([3]; telatinib in plasma, day 14 cycle 1, 900 mg BID oral, 150 mg mesylate tablet, n=12 (sample size reduced by 2), geometric mean (%CV), read-out: t1/2 (converted)): 5.6 h
- Cmax [3, 9]: 1280 ng/mL
- AUC(0-t) [3, 9]: 7300 ng·h/mL
- AUC [3, 9]: 7410 ng·h/mL
- Tmax ([3]; telatinib in plasma, day 14 cycle 1, 900 mg BID oral, 150 mg mesylate tablet, n=12, median (range), read-out: tmax): 2 h
- Cmax [3, 10]: 1140 ng/mL
- AUC(0-t) [3, 10]: 7260 ng·h/mL
- AUC [3, 10]: 7100 ng·h/mL
- half-life ([3]; telatinib in plasma, day 14 cycle 1, 1200 mg BID oral, 150 mg mesylate tablet, n=6, geometric mean (%CV), read-out: t1/2 (converted)): 5.6 h
- Tmax ([3]; telatinib in plasma, day 14 cycle 1, 1200 mg BID oral, 150 mg mesylate tablet, n=6, median (range), read-out: tmax): 2.5 h
- Cmax [3, 11]: 964 ng/mL
- AUC(0-t) [3, 11]: 6290 ng·h/mL
- AUC [3, 11]: 6170 ng·h/mL
- half-life ([3]; telatinib in plasma, day 14 cycle 1, 1500 mg BID oral, 150 mg mesylate tablet, n=12, geometric mean (%CV), read-out: t1/2 (converted)): 6.6 h
- Tmax ([3]; telatinib in plasma, day 14 cycle 1, 1500 mg BID oral, 150 mg mesylate tablet, n=12, median (range), read-out: tmax): 2.5 h
- median tmax ([3]; telatinib, oral, 75 mg BID to 1500 mg BID dose range): ≤ 3 h
- Best response NA (not assessable for response) ([4]; Total, N=71): 1
- Best response PD clin (RECIST) ([4]; Total, N=71): 9
- Best response PD meas (RECIST) ([4]; Total, N=71): 14
- Best response PR (RECIST) ([4]; Total, N=71): 2
- Best response SD (RECIST) ([4]; Total, N=71): 42
- Stabilisation (months) <6 ([4]; Total, N=71): 62
- Stabilisation (months) >6 ([4]; Total, N=71): 5
- Stabilisation (months) >12 ([4]; Total, N=71): 3
- Best response PD clin (RECIST) [4, 12]: 1
- Best response PD meas (RECIST) [4, 12]: 6
- Best response SD (RECIST) [4, 12]: 17
- Stabilisation (months) <6 [4, 12]: 23
- Stabilisation (months) >6 [4, 12]: 1
- Stabilisation (months) >12 [4, 12]: 1
- Best response PD clin (RECIST) ([4]; primary tumour site HCC, N=9): 4
- Best response SD (RECIST) ([4]; primary tumour site HCC, N=9): 5
- Stabilisation (months) <6 ([4]; primary tumour site HCC, N=9): 8
- Stabilisation (months) >6 ([4]; primary tumour site HCC, N=9): 1
- Best response PD meas (RECIST) ([4]; primary tumour site NSCLC, N=4): 1
- Best response SD (RECIST) ([4]; primary tumour site NSCLC, N=4): 3
- Stabilisation (months) <6 ([4]; primary tumour site NSCLC, N=4): 4
- Best response NA (not assessable for response) [4, 13]: 1
- Best response PD clin (RECIST) [4, 13]: 1
- Best response PD meas (RECIST) [4, 13]: 4
- Best response SD (RECIST) [4, 13]: 10
- Stabilisation (months) <6 [4, 13]: 13
- Stabilisation (months) >6 [4, 13]: 3
- Best response PD clin (RECIST) [4, 14]: 2
- Best response PD meas (RECIST) [4, 14]: 2
- Stabilisation (months) <6 [4, 14]: 4
- Best response PD clin (RECIST) ([4]; primary tumour site RCC, N=12): 1
- Best response PD meas (RECIST) ([4]; primary tumour site RCC, N=12): 1
- Best response SD (RECIST) ([4]; primary tumour site RCC, N=12): 7
- Stabilisation (months) <6 ([4]; primary tumour site RCC, N=12): 10
- Stabilisation (months) >12 ([4]; primary tumour site RCC, N=12): 2

— publication PMC2584942, “Phase I dose escalation study of telatinib (BAY 57-9352) in patients with advanced solid tumours” (British Journal of Cancer, 2008)
